Source: patent US8092816B2, “Insecticidal compositions for control of general household pests” (priority 2004, dated 2012)
Like-named read-outs stand apart in the source and are kept apart here.

How the values were obtained:
German cockroach = assay: Example 2: German cockroach knockdown and mortality, bifenthrin and imidacloprid; type: in vivo
Text: (§1) The following examples further illustrate the present invention, but, of course, should not be construed as in any way limiting its scope. The examples set forth certain biological data illustrating the efficacy of the compositions of the present invention in controlling general household pests. Each example embodies a separate test wherein the pests were randomly selected from a population at a random age. As a result, from example to example, the ages of the pests can be very different. This age difference potentially translates to different baselines for each example. Therefore, data should only be compared within the example and not from example to example due to the differences in age of the pests from example to example. Unless otherwise indicated, all parts, percentages, and the like are by weight. The spray chamber used in the examples was approximately 76 inches tall, 73 inches long and 31 inches deep with an adjustable shelf (approximately 22 inches deep) and a movable spray nozzle. The spray chambers were calibrated to deliver a volume of approximately 1 gallon of liquid per 1000 square feet of area at about 14 pounds per square inch of pressure. A DeVilbiss hand held sprayer (Atomizer model 152) manufactured by DeVilbiss located in Glendale Heights, Ill. was used in testing house flies and mosquitoes. The DeVilbiss was used to apply approximately 3-5 milliliters of product at about 10 pounds per square inch.
The compositions of the present invention were tested for German cockroach activity in the following manner:
(§2) Test compositions made up of TALSTARONE® MULTI-INSECTICIDE and a wettable powder of imidacloprid (MERIT) in distilled water were prepared that provided appropriate rates of application of combinations of bifenthrin and imidacloprid, as well as bifenthrin and imidacloprid alone.
(§3) The spray chamber was then calibrated to deliver the treatment solution at the desired volume and pressure over the desired area on the chamber shelf. Spray chamber shelf height was adjusted to approximately 18 inches from the spray tip. The shelf was then covered with aluminum foil and the center of the shelf from front-to-back and end-to-end was determined. A desired number of 4.0″ sieve circles were marked on the aluminum foil with a permanent marker. The inside of a desired number of PVC rings were coated with a petroleum jelly/mineral oil mixture (1:2 ratio). The PVC rings were place on the sieve circles. 10 male German cockroaches were placed inside each PVC ring. The sprayer was activated and the test compound was applied to each PVC ring interior. German cockroach knockdown and mortality were measured.

Red Imported Fire Ant = assay: Example 6: red imported fire ant knockdown and mortality, bifenthrin and imidacloprid (higher rates); type: in vivo, Solenopsis invicta
Text: as §1
The compositions of the present invention were tested for red imported fire ant activity in the following manner:
as §2
The spray chamber was then calibrated to deliver the treatment solution at the desired volume and pressure over the desired area on the chamber shelf. Spray chamber shelf height was adjusted to approximately 18 inches from the spray tip. The shelf was then covered with aluminum foil and the center of the shelf from front-to-back and end-to-end was determined. The red imported file ants to be treated were collected and placed in screened 16 oz paper cups. The paper cups were placed onto the aluminum foil on the spray chamber shelf. The sprayer was activated and the test compound was applied to each paper cup interior. Red imported fire ant knockdown and mortality were measured.

Yellow Fever Mosquito = type: in vivo
Text: as §1
The compositions of the present invention were tested for Yellow Fever Mosquito activity in the following manner:
(§4) Test compositions made up of TALSTARONE® MULTI-INSECTICIDE and a 16% a.i. water dispersible granular of clothianidin in distilled water were prepared that provided appropriate rates of application of combinations of bifenthrin and clothianidin, as well as bifenthrin and clothianidin alone.
A DeVilbiss hand held sprayer was used to deliver the treatment solution at the desired volume and pressure. The Yellow Fever Mosquitoes to be treated were collected and placed in screened 16 oz paper cups. The hand held sprayer was activated and the test compound was applied to each paper cup interior. Yellow Fever Mosquito knockdown and mortality were measured.

Oriental cockroach = assay: Example 15: Oriental cockroach knockdown and mortality, bifenthrin and clothianidin; type: in vivo
Text: as §1
The compositions of the present invention were tested for Oriental cockroach activity in the following manner:
as §4
as §3, with “Oriental” for “German”

[1] = rate of appln. 10 PPM (0.001% by weight)
[2] = rate of appln. 50 PPM (0.005% by weight)

## Cc1c(COC(=O)[C@@H]2[C@H](/C=C(\Cl)C(F)(F)F)C2(C)C)cccc1-c1ccccc1 (racemic) [A, 2-methylbiphenyl-3-ylmethyl (Z)-(1RS)-cis-3-(2-chloro-3,3,3-trifluoroprop-1-enyl)-2,2-dimethylcyclopropanecarboxylate]
German cockroach; 200 PPM, 0.02% by weight
  Knockdown Rate @ 10 minute: 0%
  Knockdown Rate @ 15 minute: 3%
  Knockdown Rate @ 30 minutes: 45%
  Mortality Rate @ 60 minutes: 100%
  Mortality Rate @ 120 minutes: 100%
  Mortality Rate @ 1 day: 100%
German cockroach; 600 PPM, 0.06% by weight
  Knockdown Rate @ 10 minute: 0%
  Knockdown Rate @ 15 minute: 8%
  Knockdown Rate @ 30 minutes: 60%
  Mortality Rate @ 60 minutes: 100%
  Mortality Rate @ 120 minutes: 100%
  Mortality Rate @ 1 day: 100%
Red Imported Fire Ant; 200 PPM, 0.02% by weight
  Knockdown Rate @ 5 minute: 0%
  Knockdown Rate @ 10 minute: 0%
  Knockdown Rate @ 15 minute: 70%
  Knockdown Rate @ 30 minutes: 88%
  Mortality @ 120 minutes: 100%
  Mortality Rate @ 60 minutes: 100%
  Mortality Rate @ 4 hours: 100%
Red Imported Fire Ant; 600 PPM, 0.06% by weight
  Knockdown Rate @ 5 minute: 0%
  Knockdown Rate @ 10 minute: 40%
  Knockdown Rate @ 15 minute: 88%
  Knockdown Rate @ 30 minutes: 100%
  Mortality @ 120 minutes: 100%
  Mortality Rate @ 60 minutes: 100%
  Mortality Rate @ 4 hours: 100%
Yellow Fever Mosquito; [1]
  Knockdown Rate @ 15 minute: 27%
  Knockdown Rate @ 30 minute: 97%
  Mortality Rate @ 45 minutes: 100%
  Mortality Rate @ 60 minutes: 100%
  Mortality Rate @ 120 minutes: 100%
  Mortality Rate @ 180 minute: 100%
  Mortality Rate @ 4 hours: 100%
  Mortality Rate @ 1 day: 100%
Yellow Fever Mosquito; [2]
  Knockdown Rate @ 15 minute: 90%
  Knockdown Rate @ 30 minute: 100%
  Mortality Rate @ 45 minutes: 100%
  Mortality Rate @ 60 minutes: 100%
  Mortality Rate @ 120 minutes: 100%
  Mortality Rate @ 180 minute: 100%
  Mortality Rate @ 4 hours: 100%
  Mortality Rate @ 1 day: 100%
Oriental cockroach; [1]
  Knockdown Rate @ 10 minute: 0%
  Knockdown Rate @ 15 minute: 0%
  Knockdown Rate @ 30 minute: 0%
  Mortality Rate @ 60 minute: 0%
  Mortality Rate @ 120 minute: 0%
  Mortality Rate @ 4 hours: 0%
  Mortality Rate @ 1 day: 0%
  Mortality Rate @ 2 days: 3%
Oriental cockroach; [2]
  Knockdown Rate @ 10 minute: 0%
  Knockdown Rate @ 15 minute: 0%
  Knockdown Rate @ 30 minute: 0%
  Mortality Rate @ 60 minute: 0%
  Mortality Rate @ 120 minute: 0%
  Mortality Rate @ 4 hours: 10%
  Mortality Rate @ 1 day: 20%
  Mortality Rate @ 2 days: 23%
